In data set [1] the test system is Galium aparine. Put plainly: Greenhouse post-emergence herbicidal test. The following applies: application rate 0.25 kg/ha. Type of data set: in vivo. The source says: (§1) The seeds of the test plants were sown separately for each species. For the post-emergence treatment, the test plants were first grown to a height of 3 to 15 cm, depending on the plant habit, and only then treated with the active compounds which had been suspended or emulsified in water. For this purpose, the test plants were either sown directly and grown in the same containers, or they were first grown separately as seedlings and transplanted into the test containers a few days prior to treatment. […] (active substance). Depending on the species, the plants were kept at 10-25° C. or 20-35° C. The test period extended over 2 to 4 weeks. During this time, the plants were tended, and their response to the individual treatments was evaluated. Evaluation was carried out using a scale from 0 to 100. 100 means no emergence of the plants, or complete destruction of at least the aerial parts, and 0 means no damage, or normal course of growth. The plants used in the greenhouse experiments belonged to the following species: [table]

Data set [2] deals with Amaranthus retroflexus. Put plainly: Greenhouse post-emergence herbicidal test. Type of data set: in vivo.
Excerpt: as §1

The test system of data set [3] is Chenopodium album. Put plainly: Greenhouse post-emergence herbicidal test. Format: in vivo.
Excerpt: as §1

The subject of data set [4] is Setaria viridis. Put plainly: Greenhouse post-emergence herbicidal test. Type of data set: in vivo. The settings on record: application rate 1 kg/ha. The source says: The seeds of the test plants were sown separately for each species. For the post-emergence treatment, the test plants were first grown to a height of 3 to 15 cm, depending on the plant habit, and only then treated with the active compounds which had been suspended or emulsified in water. For this purpose, the test plants were either sown directly and grown in the same containers, or they were first grown separately as seedlings and transplanted into the test containers a few days prior to treatment. The rate of application for the post-emergence treatment was 1.0 kg/ha of a.s. (active substance). Depending on the species, the plants were kept at 10-25° C. or 20-35° C. The test period extended over 2 to 4 weeks. During this time, the plants were tended, and their response to the individual treatments was evaluated. Evaluation was carried out using a scale from 0 to 100. 100 means no emergence of the plants, or complete destruction of at least the aerial parts, and 0 means no damage, or normal course of growth. The plants used in the greenhouse experiments belonged to the following species: [table]

One may read the melting point as the temperature, or range, at which the solid turns liquid. In the case of `CNC(=O)[C@H](NC(=O)c1cn(C)nc1C(F)(F)F)[C@H](C[N+](=O)[O-])c1ccccc1` (racemic) [Compound 5.3, 1-Methyl-N-{(1RS,2SR)-1-[(methylamino)carbonyl]-3-nitro-2-phenylpropyl}-3-(trifluoromethyl)-1H-pyrazole-4-carboxamide], the melting point was 119 °C. Further, in data set [1], the “post-emergence action against Galium aparine” value is on record as “very good”. Also, the “post-emergence action against Amaranthus retroflexus” value in data set [2] (application rate 0.25 kg/ha) was “very good”. Besides, the “post-emergence action against Chenopodium album” value in data set [3] (application rate 0.25 kg/ha) is on record as “very good”.
Take `CNC(=O)C(NC(=O)c1cn(C)nc1C(F)(F)F)C(COC(C)=O)c1ccccc1` (single isomer, unassigned) [Compound 3.7, 3-Methylcarbamoyl-3-[(1-methyl-3-trifluoromethyl-1H-pyrazole-4-carbonyl)amino]-2-phenylpropyl Acetate]: the “post-emergence action against Setaria viridis” value in data set [4] is on record as “very good”. Moreover, the “post-emergence action against Amaranthus retroflexus” value in data set [2] (application rate 1 kg/ha) is listed as “very good”. For the same compound, in data set [3] (application rate 1 kg/ha), the “post-emergence action against Chenopodium album” value is “very good”.
For `CNC(=O)[C@H](NC(=O)c1cn(C)nc1C(F)(F)F)[C@H](CNC(=O)C(F)(F)F)c1ccccc1` (racemic) [Compound 4.17, 1-Methyl-N-{(1RS,2SR)-1-[(methylamino)carbonyl]-2-phenyl-3-(2,2,2-trifluoroacetylamino)propyl}-3-(trifluoromethyl)-1H-pyrazole-4-carboxamide], the melting point is 233 °C.
The same measure, in the same setting: the figure for `CNC(=O)[C@@H](NC(=O)c1cn(C)nc1C(F)(F)F)[C@H](CN)c1ccccc1` (racemic) [Compound 4.5, N-{(1RS,2RS)-3-Amino-1-[(methylamino)carbonyl]-2-phenylpropyl}-1-methyl-3-(trifluoromethyl)-1H-pyrazole-4-carboxamide] is 91 °C.
In turn, `CNC(=O)C(NC(=O)c1cn(C)nc1C(F)(F)F)C(CO)c1ccccc1` (racemic) [Compound 3.1, N-(3-hydroxy-1-methylcarbamoyl-2-phenyl-propyl)-1-methyl-3-trifluoromethyl-1H-pyrazole-4-carboxamide] displayed a melting point of 194 °C. The “post-emergence action against Setaria viridis” value in data set [4] is reported as “very good”. The “post-emergence action against Amaranthus retroflexus” value in data set [2] (application rate 1 kg/ha) is reported as “very good”. In data set [3] (application rate 1 kg/ha), the “post-emergence action against Chenopodium album” value is listed as “very good”.
In the case of `CNC(=O)C(NC(=O)c1cn(C)nc1C(F)(F)F)C(CO)c1ccccc1` (racemic) [Compound 3.2, N-(3-hydroxy-1-methylcarbamoyl-2-phenyl-propyl)-1-methyl-3-trifluoromethyl-1H-pyrazole-4-carboxamide], the melting point turned out to be 202 °C. For the same compound, the “post-emergence action against Setaria viridis” value in data set [4] was “very good”. In addition, the “post-emergence action against Amaranthus retroflexus” value in data set [2] (application rate 1 kg/ha) is listed as “very good”. Moreover, in data set [3] (application rate 1 kg/ha), the “post-emergence action against Chenopodium album” value is “very good”.

Source of the values: US20090186766A1, “Heteroaroyl-Substituted Alanines with a Herbicidal Action” (BASF SE, priority 2006, published 2009).
